Laboratory results taken from publication PMC4133117 (Biochemical pharmacology, 2014).

How the values were obtained:
ABCB1 [1] = target: T1, ABCB1 (Homo sapiens, UniProt P08183); test: vanadate-sensitive ATPase stimulation in crude membranes; format: biochemical
ABCB1 [2] = target: T1, ABCB1

T1 sequence (P08183 whole entry): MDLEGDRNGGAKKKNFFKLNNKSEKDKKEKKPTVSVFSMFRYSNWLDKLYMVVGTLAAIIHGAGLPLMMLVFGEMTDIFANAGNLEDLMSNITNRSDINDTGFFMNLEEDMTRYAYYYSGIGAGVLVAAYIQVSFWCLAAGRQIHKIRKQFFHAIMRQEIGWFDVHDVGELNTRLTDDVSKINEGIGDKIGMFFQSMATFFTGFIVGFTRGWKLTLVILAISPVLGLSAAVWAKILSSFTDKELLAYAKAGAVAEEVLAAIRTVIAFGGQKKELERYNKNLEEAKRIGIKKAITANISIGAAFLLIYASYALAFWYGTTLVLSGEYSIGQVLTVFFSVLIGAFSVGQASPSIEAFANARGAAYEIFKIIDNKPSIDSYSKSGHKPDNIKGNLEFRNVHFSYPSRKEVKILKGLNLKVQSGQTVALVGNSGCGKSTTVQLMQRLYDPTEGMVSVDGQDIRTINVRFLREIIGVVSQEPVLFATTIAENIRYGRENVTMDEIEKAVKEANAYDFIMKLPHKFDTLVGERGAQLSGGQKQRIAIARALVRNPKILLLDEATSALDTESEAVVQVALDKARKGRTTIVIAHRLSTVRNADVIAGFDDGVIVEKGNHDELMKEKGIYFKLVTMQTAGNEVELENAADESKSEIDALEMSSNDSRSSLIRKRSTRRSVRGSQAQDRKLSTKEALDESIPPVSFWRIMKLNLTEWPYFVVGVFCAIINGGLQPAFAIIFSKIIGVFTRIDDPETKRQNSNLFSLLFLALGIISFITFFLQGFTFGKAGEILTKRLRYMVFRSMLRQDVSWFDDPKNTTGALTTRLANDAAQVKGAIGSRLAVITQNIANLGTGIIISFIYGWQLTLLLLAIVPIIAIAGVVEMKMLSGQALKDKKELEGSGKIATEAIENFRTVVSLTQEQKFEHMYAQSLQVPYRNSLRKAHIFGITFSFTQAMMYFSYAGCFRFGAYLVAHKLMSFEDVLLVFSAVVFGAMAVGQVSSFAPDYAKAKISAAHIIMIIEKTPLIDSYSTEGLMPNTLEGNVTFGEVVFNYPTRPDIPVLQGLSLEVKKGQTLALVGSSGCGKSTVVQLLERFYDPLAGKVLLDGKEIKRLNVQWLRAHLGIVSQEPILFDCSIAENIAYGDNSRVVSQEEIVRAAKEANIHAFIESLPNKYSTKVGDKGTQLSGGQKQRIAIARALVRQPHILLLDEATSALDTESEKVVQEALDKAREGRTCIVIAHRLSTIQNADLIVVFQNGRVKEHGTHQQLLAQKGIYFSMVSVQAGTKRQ

Row | Structure (SMILES) | EC50 (ABCB1 [1]) [nM] | radiolabelled efflux assay in KB-C2 vs KB-3-1 cells (ABCB1 [2])
1 | CC1(C)CNc2cc(NC(=O)c3cccnc3NCc3ccncc3)ccc21 [motesanib] | 893 | 
2 | CC(=O)O[C@H]1C(=O)[C@@]2(C)[C@H]([C@H](OC(=O)c3ccccc3)[C@]3(O)C[C@H](OC(=O)[C@H](O)[C@@H](NC(=O)c4ccccc4)c4ccccc4)C(C)=C1C3(C)C)[C@]1(OC(C)=O)CO[C@@H]1C[C@@H]2O [paclitaxel] |  | significantly lower compared to that of parental KB-3-1 cells due to active transport of the [^3H]-paclitaxel by the ABCB1 transporter
